Data as given in article PMC10865409, “The prFMNH2-binding chaperone LpdD assists UbiD decarboxylase activation” (The Journal of Biological Chemistry, 2024).
Positions count from the first letter of the chain named. Names and notes keep the numbering of the source.

How the values were obtained:
LpdD [1] = target: T1, LpdD (Lactiplantibacillus plantarum, UniProt F9UT68); experiment: UV-Vis after in vitro reconstitution and desalting; format: binding; settings: anaerobic, 2:1 prFMNH2:protein, 50 mM Tris pH 7.5, 200 mM NaCl, with or without MnCl2
T1 construct: full length, N-terminal hexahistidine tag (best crystals; C-terminal also made), E. coli codon-optimized gene, E. coli BL21(DE3), Ni-NTA; dimer
T1 sequence (F9UT68 1-136): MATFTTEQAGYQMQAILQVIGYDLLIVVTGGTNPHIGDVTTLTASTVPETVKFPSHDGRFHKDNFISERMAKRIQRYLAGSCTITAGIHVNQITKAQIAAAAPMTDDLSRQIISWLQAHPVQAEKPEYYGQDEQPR

LpdD [2] = target: T2, LpdD (Lactiplantibacillus plantarum, UniProt F9UT68, H61A); experiment: UV-Vis after in vitro reconstitution and desalting; format: binding; settings: anaerobic, 2:1 prFMNH2:protein, 50 mM Tris pH 7.5, 200 mM NaCl, 1 mM MnCl2
T2 construct: full length, N-terminal hexahistidine tag (best crystals; C-terminal also made), E. coli codon-optimized gene, E. coli BL21(DE3), Ni-NTA; dimer

[3] = target: T3, UbiD (Strep-tagged apo-UbiD) (Escherichia coli, UniProt P0AAB4); experiment: decarboxylation by HPLC; Strep-UbiD plus LpdD-containing lysate; format: biochemical; settings: anaerobic; LpdD lysate supernatant with or without prFMNH2; purified UbiD alone inactive
T3 construct: Strep-tagged, purified apo-UbiD reconstituted with LpdD-containing E. coli lysate and prFMNH2; 4-hydroxybenzoate row is endogenous UbiD of E. coli BL21(DE3)
T3 sequence (P0AAB4 1-497): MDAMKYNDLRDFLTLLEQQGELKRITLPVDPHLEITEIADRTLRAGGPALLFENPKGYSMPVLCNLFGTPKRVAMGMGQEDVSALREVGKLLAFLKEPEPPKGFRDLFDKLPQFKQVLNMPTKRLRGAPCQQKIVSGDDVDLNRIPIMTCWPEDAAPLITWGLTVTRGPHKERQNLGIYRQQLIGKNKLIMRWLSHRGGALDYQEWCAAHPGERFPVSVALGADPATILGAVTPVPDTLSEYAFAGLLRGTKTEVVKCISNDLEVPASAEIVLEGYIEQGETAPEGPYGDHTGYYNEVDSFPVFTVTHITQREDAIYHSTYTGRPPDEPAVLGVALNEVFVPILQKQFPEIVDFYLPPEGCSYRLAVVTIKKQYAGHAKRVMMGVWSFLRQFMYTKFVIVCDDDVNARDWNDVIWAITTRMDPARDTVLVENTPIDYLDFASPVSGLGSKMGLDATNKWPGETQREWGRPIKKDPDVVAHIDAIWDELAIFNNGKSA

[4] = target: T3, UbiD (Strep-tagged apo-UbiD); experiment: ESI-MS of reconstituted Strep-UbiD; format: binding; settings: reconstituted with LpdD-containing cell lysate and prFMNH2
[5] = target: T4, Strep-tagged Escherichia coli UbiD (Escherichia coli, UniProt P0AAB4 1-497); experiment: pull-down; Strep-tagged UbiD and His-tagged LpdD mixed in an equimolar ratio, pulled down with streptavidin beads under anaerobic conditions; SDS-PAGE and His-Western blot; settings: both partners purified
T4 construct: UbiD, prFMN-dependent decarboxylase of ubiquinone biosynthesis, Escherichia coli; also called Strep-UbiD; Strep-apo-UbiD; source: purified
T4 sequence (looked up): T3 sequence (P0AAB4 1-497)

[6] = target: the molecule itself; experiment: crystal structure; N-terminally His-tagged LpdD, ca 15 mg/ml, 1.6 M magnesium sulfate heptahydrate, 0.1 M Mes pH 6.5, 20 °C; space group I222, two monomers in the asymmetric unit; dimer built by crystallographic symmetry
[7] = target: the molecule itself; experiment: crystal structure; LpdD H35A, space group P4_(1)2_(1)2, one molecule in the asymmetric unit, distinct crystallization conditions; dimer built by crystallographic symmetry

T2 sequence (F9UT68 whole entry H61A): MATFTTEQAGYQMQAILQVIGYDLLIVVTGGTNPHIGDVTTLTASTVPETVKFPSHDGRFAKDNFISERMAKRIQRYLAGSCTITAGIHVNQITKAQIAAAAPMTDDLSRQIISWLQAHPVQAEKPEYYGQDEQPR

Cc1cc2c3c(c1C)C(C)(C)CCN3c1c([nH]c(=O)[nH]c1=O)N2C[C@H](O)[C@H](O)[C@H](O)COP(=O)(O)O [prFMNH2]
UV-Vis after in vitro reconstitution and desalting (LpdD [1]): In vitro reconstitution of purified apo-LpdD with prFMNH2 results in similar spectral features | UV-Vis after in vitro reconstitution and desalting (LpdD [2]): purified H61A variant reveals this mutation does not abolish prFMNH2 binding

O=C(O)c1ccc(O)c(O)c1 [compound 2, 3,4-dihydroxy-benzoic acid]
decarboxylation by HPLC; Strep-UbiD plus LpdD-containing lysate [3]: activity was observed when LpdD-containing cell lysate supernatant was included in the assays

Cc1cc2c3c(c1C)C(C)(C)CC=[N+]3c1c(nc([O-])[nH]c1=O)N2C[C@H](O)[C@H](O)[C@H](O)COP(=O)(O)O [prFMN^iminium]
ESI-MS of reconstituted Strep-UbiD [4]: reconstituted Strep-UbiD reveals the presence of catalytically relevant prFMN^iminium species

B1: LpdD (lp_0272) from Lactobacillus plantarum, His-tagged (natural protein)
chain: T1 sequence (F9UT68 1-136)
notes: LpdD, small protein associated with the UbiD-type gallate decarboxylase LpdC, Lactobacillus plantarum, locus lp_0272; E. coli codon-optimized synthetic gene; N- and C-terminally His-tagged LpdD were both made (pET28a and pET30a); the best crystals came from the N-terminally tagged protein; The pull-down says only 'His-tagged LpdD'; The tag is detected by His-Western blot in the pull-down; also …
binding result [5]: binds | stoichiometry N [6]: 2

B2: LpdD H35A variant (natural protein, Lactobacillus plantarum)
chain: T1 sequence (F9UT68 1-136) with H35A
notes: LpdD, Lactobacillus plantarum, locus lp_0272, with H35A made by site-directed mutagenesis of the WT construct; source: E. coli BL21(DE3), purified
stoichiometry N [7]: 2
